Three molecules from patent publication US8440615B2, “Pharmaceutical and/or cosmetic composition containing active-principle activators of aconitase” (Societe d'Extraction des Principes Actifs (Vincience), priority 2007, dated 2013) can be followed below.

Data set [1] has as its system aconitase. Put plainly: Total (cytoplasmic and mitochondrial) enzymatic activity of aconitase in fibroblasts, Bioxytech Aconitase-340 kit. Type of data set: cell-based, human. Here is the method: (§1) The aim of this study was to determine the effect of the SEQ ID No. 2 peptide on the enzymatic activity of aconitase. For this, the total enzymatic activity (cytoplasmic and mitochondrial) and the mitochondrial enzymatic activity of aconitase were measured.
Protocol: Normal human fibroblasts were treated with a 1% solution of a 50-ppm SEQ ID No. 2 peptide representative of the peptide family according to the invention, for 48 hr, and were then subjected to UVB radiation of 100 mJ/cm^2. After irradiation, the cells were treated under the same conditions for another 24 hr. Negative controls were achieved under the same conditions, but in the absence of the SEQ ID No. 2 peptide.
To evaluate the enzymatic activity of aconitase, the fibroblasts were then collected and centrifuged in PBS buffer. […]
(§2) The measurement of the enzymatic activity of aconitase was made using the Oxis Bioxytech Aconitase-340 assay kit (Oxis International), according to the following principle: aconitase causes isomerization of the citrate to isocitrate. […] It is the formation of NADPH that is quantified spectrophotometrically at 340 nm. Under the experimental conditions chosen, the rate of NADPH formation is proportional to the quantity of aconitase. The analysis of the kinetics of NADPH appearance enables the concentration of aconitase in the sample to be calculated (in mU/ml)

For data set [2], the system named is human dermal fibroblasts. Type of data set: cell-based. Particulars: 48 h, 0.5 ppm. Here is the method:
The aim of this study was to determine the protective effect of the SEQ ID No. 2 peptide with respect to dermal fibroblasts subjected to an oxidative stress caused by oxygenated water (H2O2) in a concentration of 4 mM or 5 mM. For this, cellular viability tests were performed using the MTT technique. Protocol: Human dermal fibroblasts were treated with a 1% solution of a 50-ppm SEQ ID No. 2 peptide for 24 hours, subjected to an oxidative stress caused by 4 mM or 5 mM of H2O2 for 30 minutes, and then cultivated for another 24 hours in the presence of the same concentration of SEQ ID No. 2 peptide. Controls treated with neither the peptide nor H2O2 and controls treated with the peptide alone were achieved under the same conditions. At the end of the experiment, the cells were incubated in a solution containing 0.1 mg/ml of MTT (3-[4,5-dimethylthiazole-2-yl]-2,5-diphenyltetrazolium bromide) according to the protocol described in example 3

Data set [3] concerns normal human keratinocytes. The data set is described as follows: Ultrastructure of mitochondria by electron microscopy. Type of data set: cell-based. Particulars: 1% solution of a 50-ppm mother-solution for 72 hours. On the procedure: The aim of this study was to determine the action of the SEQ ID No. 2 peptide on mitochondria, by observing the ultrastructures with the electron microscope.
Protocol: Normal human keratinocytes were treated with a 1% solution of a 50-ppm mother-solution of SEQ ID No. 2 peptide for 72 hours. Negative controls were achieved under the same conditions, but in the absence of the said peptide.
The cells were then fixed using Karnovsky's fixative (20 ml of 16% paraformaldehyde/8 ml of 50% glutaraldehyde/25 ml of 0.2 M sodium phosphate buffer/25 ml of water) for 1 hr at ambient temperature, and then left overnight at 4° C. The culture media were scraped into the Karnovsky's fixative and then the cells were centrifuged for 5 minutes at 5000 rpm. The supernatant was isolated and the pellet resuspended in 1 ml of 0.1 M cacodylate. The samples were then kept at 4° C. until their processing for electron microscopy observation.

Data set [4] has as its system primary human fibroblasts. The data set is described as follows: Comet test (single-cell gel electrophoresis), DNA damage after UVB irradiation. Type of data set: cell-based. Particulars: UVB 100 mJ/cm^2, 0.5 ppm peptide. Here is the method: A study of the cytoprotective effect of SEQ ID No. 2 peptide was made by evaluating the damage caused at the DNA level. This study was done using the comet (or single-cell gel electrophoresis) test, a quick and sensitive micro-electrophoretic technique that enables breaks in the DNA to be visualized and quantified in individual cells.
Protocol: Primary human fibroblasts were seeded in […] dishes. When the cells reached 70% coalescence, they were treated with SEQ ID No. 2 peptide diluted to 1% (starting from a 50-ppm solution) for 24 hours. The cells were then subjected to UVB irradiation at 100 mJ/cm^2, then cultivated in the presence of the peptide for another 24 hours. The dishes not treated with the peptide served as controls. A cellular suspension of 100,000 cells/ml was then achieved, 500 μl were removed, inserted into an agarose solution, and run between slide and cover glass. The cells were lysed in the cold. The DNA was then denatured with an alkaline buffer and subjected to a brief electrophoresis (250 mA for 30 minutes), and stained with propidium iodate. The slides were then observed under a fluorescence microscope. An altered cell sees its DNA stretch toward the anode in proportion to the number of breaks present in the DNA, and it forms a “comet”. The highly degraded DNA is found in the “tail” of the comet. An intact cell remains round, and its DNA is then packed into the area of the comet “head”.
The evaluation of DNA breaks was done using image-analyzer software that enables the percentage of DNA degradation to be determined, by means of a quantitative evaluation of the “tail moment”, a parameter defined as the product of the length of the comet by the percentage of DNA in its distal portion.

The target of data set [5] is T1, mitochondrial aconitase (Homo sapiens, UniProt Q99798).
T1 construct: endogenous in cells; host or cells: normal human fibroblasts, mitochondrial fraction (10,000 g pellet)
T1 sequence (Q99798 28-780): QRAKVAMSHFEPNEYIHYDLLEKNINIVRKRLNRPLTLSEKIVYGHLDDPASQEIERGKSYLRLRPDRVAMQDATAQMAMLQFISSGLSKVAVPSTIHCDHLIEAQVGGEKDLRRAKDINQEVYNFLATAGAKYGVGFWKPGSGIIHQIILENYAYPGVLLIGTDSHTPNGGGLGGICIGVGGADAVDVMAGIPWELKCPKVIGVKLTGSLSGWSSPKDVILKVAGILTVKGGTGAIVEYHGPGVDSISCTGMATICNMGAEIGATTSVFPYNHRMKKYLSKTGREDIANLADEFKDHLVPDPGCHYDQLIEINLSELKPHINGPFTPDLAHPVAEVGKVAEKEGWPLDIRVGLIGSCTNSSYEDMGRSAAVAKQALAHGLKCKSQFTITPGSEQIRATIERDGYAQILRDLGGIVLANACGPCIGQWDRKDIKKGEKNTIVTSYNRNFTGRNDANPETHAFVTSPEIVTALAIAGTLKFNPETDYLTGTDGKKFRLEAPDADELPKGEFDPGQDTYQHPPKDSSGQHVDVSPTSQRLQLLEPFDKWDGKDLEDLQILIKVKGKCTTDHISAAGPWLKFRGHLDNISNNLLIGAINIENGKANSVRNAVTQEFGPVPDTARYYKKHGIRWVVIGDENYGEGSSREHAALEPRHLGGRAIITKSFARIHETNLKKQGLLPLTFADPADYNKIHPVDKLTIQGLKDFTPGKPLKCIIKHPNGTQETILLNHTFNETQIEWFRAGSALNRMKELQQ
Put plainly: Enzymatic activity of mitochondrial aconitase in the mitochondrial fraction of fibroblasts, Bioxytech Aconitase-340 kit. Type of data set: cell-based. The following applies: concentration printed as 0.05 ppm. Here is the method: as §1
[…] After irradiation, the cells were treated under the same conditions for another 24 hr. Negative controls were achieved under the same conditions, but in the absence of the SEQ ID No. 2 peptide.
To evaluate the enzymatic activity of aconitase, the fibroblasts were then collected and centrifuged in PBS buffer. A portion of the cells was then processed to measure total enzymatic activity; another portion was used to isolate the mitochondrial fraction according to the following protocol. […]
as §2

In data set [6] the test system is dermal fibroblasts. Put plainly: Intracellular ATP synthesis, ATP Bioluminescence Assay Kit HS II. Particulars: 1% solution of a 50-ppm peptide solution. Type of data set: cell-based. On the procedure:
The aim of this study was to determine the effect of the SEQ ID No. 1 peptide on mitochondrial activity. It is the ATP produced by the mitochondria that serves as a biochemical marker for this activity.
Protocol: This study was conducted using an ATP Bioluminescence Assay Kit HS II (Roche Applied Science). Dermal fibroblasts were treated with a 1% solution of a 50-ppm solution containing the SEQ ID No. 1 peptide, representative of the peptide family according to the invention, for a period of 1 to 3 hours. At the end of the incubation time, the tubes were emptied of their medium and rinsed with 2 ml of cold PBS before adding 250 μl of a lysing buffer provided in the kit. The cells of each tube were then scraped up and collected in 14-ml tubes. Each tube was rinsed with 2×500 μl of cold PBS, and the whole was collected again in the respective tubes. […] The ATP measurement was performed on these samples: 50 μl of this dilution was placed in a Luma cuvette and 50 μl of […] was added. After 10 seconds, the luminescence reading was begun. The values were standardized relative to the quantity of proteins for each sample. The measurements were made using the Biocounter M2010A Luma®/3M equipment.

Residues, ends and D or L forms follow the SMILES beside them.

Take “Ser-Cys-Ile-Asn-Ser (SCINS) [SEQ ID No. 5]”: the “total enzymatic activity of aconitase after UVB irradiation” value in data set [1] (UVB 100 mJ/cm^2, peptide treatment before (48 hr) and after (24 hr) irradiation) is listed as “enabled the observed reduction to be limited”.
For the molecule `CC[C@H](C)[C@H](NC(=O)[C@H](CS)NC(=O)[C@@H](N)CO)C(=O)N[C@@H](CC(N)=O)C(=O)N[C@H](C(N)=O)[C@@H](C)O` [SEQ ID No. 2, Ser-Cys-Ile-Asn-Thr-NH2] (H-SCINT-NH2; N-terminus assumed), in data set [1] (not irradiated, 1% solution of a 50-ppm peptide, n=5), the “increase in total enzymatic activity of aconitase compared with untreated control cells” value came to 56.3%. Moreover, the “% viability” value in data set [2] came out at 121.13%. Also, the “ultrastructural characteristics of the organelles” value in data set [3] is reported as “ultrastructural characteristics suggesting an increase in metabolic activity”. Moreover, in data set [4] (versus UVB control), the “reduction of "tail moment" (DNA damage)” value was 25%. For the same molecule, in data set [4] (UVB control 106,563), the “Measurement of "tail moment"” value is recorded as 80,221. Also, in data set [4] (UVB control = 100), the “% of "tail moment" relative to UV control” value is listed as 75%. For the same molecule, in data set [5], the “enzymatic activity of mitochondrial aconitase” value is given as “strongly stimulates”.
As for “Ser-Cys-Ile-Asn-Thr (SCINT) [SEQ ID No. 1]”, the “amount of intracellular ATP compared to the untreated cells” value in data set [6] (after 3 hours) is reported as “clear increase”. In data set [6] (after one hour), the “increase in the amount of intracellular ATP compared to the untreated cells” value is recorded as 43%.
